In brackets after ≈: the same amount, converted by molar mass. Entries after “also recorded” stand apart in the source; their conditions may differ. Like-named read-outs stand apart in the source and are kept apart here.
What was measured:
[1] = Solubility in organic solvents; type: physicochemical
Excerpt: Comparison of PLGA C3-complex-curcumin vs PLGA S-curcumin indicated the following differences. The solubilities of 99.2% S-Curcumin in all four solvents. […] This confers improved manufacturing capability, and attributes to different pharmacokinetics and pharmacodynamics in in vivo settings (Table 3). [table]

[2] = mice, cited from earlier work; for brain cytokine levels after TBI: cytokines named in value
cytokine release = conditions: cited from earlier work
SOCS proteins = conditions: cited from earlier work
Interleukins = conditions: cited from earlier work
H1N1 virus = conditions: in culture; cited from earlier work
[3] = system: HIV-1, HIV-2, HSV, HPV, HTLV-1, HBV, HCV, and Japanese encephalitis virus; conditions: cited from earlier work
EBOV(Zaire) = assay: microbe, parasite or virus in culture; type: cell-based; conditions: Zaire ebolavirus, HeLa, 48 h, read-out: EC50 (anti-EBOV activity)
Other Key Cytokines = conditions: cited from earlier work
coxsackie virus = conditions: Song et al; cited from earlier work
IL-6, TNF-α and MCP-1 = conditions: streptozotocin rats; cited from earlier work
QT interval = conditions: cited from earlier work
[4] = rats, cited from earlier work; for brain / tissue cytokine levels after TBI: cytokines named in value
[5] = cited from earlier work; for clinical outcome in patients with TBI: patient trials
IL-1β and TNF-α = conditions: intraperitoneal, 3 hours after injury; cited from earlier work
[6] = randomized phase II trial, acute stroke, vs control group; cited from earlier work
[7] = system: rat cerebellar granule cells; conditions: toxic doses of glutamate (Bachis et al); cited from earlier work
[8] = rats; cited from earlier work
[9] = phase II trial, 20 patients with severe TBI (Helmy et al)

Molecule: COc1cc(/C=C/C(=O)CC(=O)/C=C/c2ccc(O)c(OC)c2)ccc1O [Batch-C100609, diferuloylmethane]
- 1 g of solvent solubilize in solvent ([1]; Acetone): 23.6 mL
- Conc. ([1]; Acetone): 42300 µg/mL
- Physical appearance of solubility ([1]; Acetone): Fully
- 1 g of solvent solubilize in solvent ([1]; Acetonitrile): 184 mL
- Conc. ([1]; Acetonitrile): 5440 µg/mL
- Physical appearance of solubility ([1]; Acetonitrile): Partial
- 1 g of solvent solubilize in solvent ([1]; Ethanol): 263 mL
- Conc. ([1]; Ethanol): 3804 µg/mL
- Physical appearance of solubility ([1]; Ethanol): Partial
- 1 g of solvent solubilize in solvent ([1]; Ethyl acetate): 96.2 mL
- Conc. ([1]; Ethyl acetate): 10400 µg/mL
- Physical appearance of solubility ([1]; Ethyl acetate): Partial
- solubility compared with C3 complex ([1]; normalized to equal concentrations, Ethanol, Ethyl acetate, Acetone, Acetonitrile): greater solubility

Molecule: CC(C(=O)O)c1ccc2c(c1)[nH]c1ccc(Cl)cc12 (centres unmarked) [Carprofen]
- brain damage / neurological outcome after TBI [2]: improve neurological functioning
- brain cytokine levels after TBI [2]: markedly reduce IL-1β and IL-6

Molecule: COc1cc(C=CC(=O)CC(=O)C=Cc2ccc(O)c(OC)c2)ccc1O [Curcumin, 1,7-bis(4-hydroxy-3-methoxyphenyl)-1,6-heptadiene-3,5-dione]
- release of IL-1 (cytokine release; bone marrow stromal cells, colonic epithelial cells and human articular chondrocytes): block the release
- release of IL-2, IL-12, Interferon-γ (cytokine release): prevents release
- release of IL-8 (cytokine release; human esophageal epithelial cells and alveolar epithelial cells): block the release
- IL-1β, IL-8, TNF-α, MCP-1 and MIP-1α release (cytokine release; monocytes and macrophages (Abe et al)): suppresses
- release of IL-6, IL-8, TNF-α and MCP-1 (cytokine release; monocytes cultured in a high glucose environment (Jain et al)): markedly reduced
- release of IL-6 (cytokine release; rheumatoid synovial fibroblasts): block the release
- effect on SOCS proteins (SOCS proteins): stimulate
- Effect on IL-1 (Interleukins): ↓ IL-1
- Effect on IL-2 (Interleukins): ↓ IL-2
- Effect on IL-4 (Interleukins): ↓ ↑ IL-4
- Effect on IL-5 (Interleukins): ↓ IL-5
- Effect on IL-6 (Interleukins): ↓ IL-6
- Effect on IL-8 (Interleukins): ↓ IL-8
- Effect on IL-10 (Interleukins): ↑ IL-10
- Effect on IL-11 (Interleukins): ↓ IL-11
- Effect on IL-12 (Interleukins): ↓ IL-12
- Effect on IL-13 (Interleukins): ↓ IL-13
- Effect on IL-17 (Interleukins): ↓ IL-17
- activity against the H1N1 virus (H1N1 virus): specific activity
- activity against viruses [3]: activity against numerous viruses
- EC50 (EBOV(Zaire)): 6.5 ± 0.5 µg/mL (≈ 17.6 µM)
- Effect on GROα (CXCL1) (Other Key Cytokines): ↓ GROα
- Effect on GROβ (CXCL2) (Other Key Cytokines): ↓ GROβ
- Effect on IP-10 (CXCL10) (Other Key Cytokines): ↓ IP-10
- Effect on Interferon γ (Other Key Cytokines): ↓ Interferon γ
- Effect on MCP-1 (CCL2) (Other Key Cytokines): ↓ MCP-1
- Effect on MIP-1α (CCL3) (Other Key Cytokines): ↓ MIP-1α
- Effect on SDF-1 (CXCL12) (Other Key Cytokines): ↓ SDF-1
- Effect on TNF-α (Other Key Cytokines): ↓ TNF-α
- coxsackie virus-induced myocardial damage (coxsackie virus): protected against coxsackie virus-induced severe myocardial damage
- expression of IL-1β, IL-6 and TNF-α and NF-κB (coxsackie virus): reduced expression
- levels of IL-6, TNF-α and MCP-1 (IL-6, TNF-α and MCP-1): markedly reduced

Molecule: CCCCCCCCc1ccc(CCC(N)(CO)CO)cc1 [Fingolimod]
- QT interval (QT interval; patients with relapsing multiple sclerosis, through inhibition of the hERG current): causes QT prolongation

Molecule: Cc1cc(-c2ccccc2)nnc1N1CCN(c2ncccn2)CC1 [MW151]
- brain damage / neurological outcome after TBI [2]: improvement in neurologic functioning
- brain cytokine levels after TBI [2]: restored abnormal cytokine levels to normal

Molecule: CC(C)[C@]12O[C@H]1[C@@H]1O[C@]13[C@]1(O[C@H]1C[C@H]1C4=C(CC[C@@]13C)C(=O)OC4)[C@@H]2O [Triptolide]
- brain damage / neurological outcome after TBI [4]: reduce neuronal apoptosis
- brain / tissue cytokine levels after TBI [4]: suppress IL-1β, IL-6 and TNF-α, to increase IL-10 levels

Molecule: CC(=O)[C@H]1CC[C@H]2[C@@H]3CCC4=CC(=O)CC[C@]4(C)[C@H]3CC[C@]12C [progesterone]
- brain damage / neurological outcome after TBI [4]: improved motor skills, decreased cerebral edema and decreased mortality; also recorded: reducing apoptosis of brain tissue; also recorded: better results on the Neurological Severity Score Test
- brain / tissue cytokine levels after TBI [4]: reduced brain levels of IL-6 at 24, 48 and 72 hours; also recorded: decreased levels of IL-1β, IL-6 and TNF-α in the brain; also recorded: reduced brain levels of TNF-α and NF-κB
- favorable outcome on the Glasgow outcome scale ([5]; SYNAPSE trial, 1195 patients with severe TBI): 50.4%
- IL-1β and TNF-α (IL-1β and TNF-α): reduce IL-1β and TNF-α

Molecule: CC(C)c1nc(N(C)S(C)(=O)=O)nc(-c2ccc(F)cc2)c1/C=C/[C@@H](O)C[C@@H](O)CC(=O)O [rosuvastatin]
- plasma cytokine levels in patients with TBI ([5]; 10 days of rosuvastatin, 19 patients vs 17 controls): dramatic decrease in plasma levels of TNF-α; also recorded: No effect was seen on IL-1β, IL-6 or IL-10
- clinical outcome in patients with TBI [5]: reduction in amnesia time; also recorded: no difference in disability at 3 months; also recorded: improvement in disability scores

Molecule: IL-1RA: IL-1 receptor antagonist; human recombinant IL-1RA is a medication for rheumatoid arthritis
- brain damage / neurological outcome after TBI [4]: No effect was seen at low doses; also recorded: decreased neuronal loss
- brain / tissue cytokine levels after TBI [4]: reduced tissue IL-1β levels
- brain damage / neurological outcome after TBI [2]: reduced lesion volume
- loss of cognitive function [6]: less loss of cognitive function
- clinical outcome in patients with TBI [5]: unable to conclude that IL-1RA administration resulted in therapeutic benefit
- crossing of the blood-brain barrier [5, 9]: does cross the blood-brain barrier
- safety [5, 9]: safe

Molecule: TSG-6: TNF-α stimulated gene/protein 6, an anti-inflammatory agent
- brain damage / neurological outcome after TBI [2]: decreased lesion size and improved neurological recovery

Molecule: etanercept
- brain damage / neurological outcome after TBI [4]: reduced neuronal and glial apoptosis and microglial activation; also recorded: increased 5-bromodeoxyuridine and doublecortin markers in the injured brain
- brain / tissue cytokine levels after TBI [4]: reducing the increased levels of TNF-α
- neurological function ([5]; medical records of 617 patients with stroke and 12 with TBI, no control group (Tobinick et al)): Marked improvement in neurological function

Molecule: tocilizumab: an IL-6 blocker; anti-IL-6 antibody
- QT interval (QT interval; patients with rheumatoid arthritis): shortening of the duration of the previously prolonged QT interval

B1: IL-10: the most important anti-inflammatory cytokine (protein, UniProt P22301 19-178, looked up)
Interleukin-10: SPGQGTQSENSCTHFPGNLPNMLRDLRDAFSRVKTFFQMKDQLDNLLLKESLLEDFKGYLGCQALSEMIQFYLEEVMPQAENQDPDIKAHVNSLGENLKTLRLRLRRCHRFLPCENKSKAVEQVKNAFNKLQEKGIYKAMSEFDIFINYIEAYMTMKIRN
- brain damage / neurological outcome after TBI [4]: enhance neurological recovery; also recorded: Intracerebroventricular administration was not effective
- brain / tissue cytokine levels after TBI [4]: reduce synthesis of IL-1
- caspase-3 and neuronal death [7]: blocks caspase-3 and reduces neuronal death
- cytokines and recovery after spinal cord injury [8]: reduced TNF-α production and improved motor function

Reference: patent publication US10739353B2, “Suppression of cytokine release and cytokine storm” (SignPath Pharma Inc., priority 2014, dated 2020)
